From PubChem BioAssay AID2060500 (Molecular Pharmacology Branch, DTP, NCI, 2025)

Test system: 596521-263-R-J1-PDC complex spheroids, viability % of control
Test: Anticancer human tumor 596521-263-R-J1-PDC patient-derived soft tissue sarcoma cell line growth inhibition [GQUAD]
Conditions: for IC50: curve of first compound; for viability, T/C: stronger effect = lower value
Excerpt: DNA G-quadruplex Stabilizer Agents in Combinations in Complex Spheroids
A high-throughput screen of multi-cell type tumor spheroids was designed to identify active combinations of DNA G-quadruplex stabilizer agents and targeted small molecules. Complex spheroids include a stromal component modeled by human endothelial cells (HUVEC) and fibroblasts modeled by human mesenchymal stem cells (MSCs). The concentration ranges selected for each drug and investigational agent were based upon clinically achievable concentrations if the clinical Cmax of the agent was known.
Compounds. The drugs and investigational agents: pidnarulex (CX-5461; NSC782164), APTO-253 (NSC789042), BRACO-19 (NSC847499), peposertib (NSC802822), ceralasertib (NSC780249), elimusertib (NSC800525), camonsertib (NSC841442), AZD-1390 (NSC803789), olaparib (NSC753686), talazoparib (NSC767125), ART-558 (NSC835418), sotorasib (NSC818433), MRTX-1133 (NSC836407), SN-38 (NSC673596), topotecan (NSC609699), etoposide (NSC141540), doxorubicin (NSC123127), gemcitabine (NSC613327), 5-fluorouracil (NSC19893), paclitaxel (NSC125973), vemurafenib (NSC761431), panobinostat (NSC761190), R-306465 (JNJ-16241199; NSC773264), adavosertib (NSC754352), TP-3654 (NSC805149), carboplatin (NSC241240), KSQ-4279 (NSC840948), and staurosporine (NSC755774) were obtained from the National Cancer Institute (NCI) Developmental Therapeutics Program Chemical Repository (34). The FDA-approved anticancer drug set is available from the NCI Developmental Therapeutics Program. […] The stock solutions were prepared in dimethyl sulfoxide (DMSO, Sigma-Aldrich, St. Louis, MO, cat. D2650) at 800-fold the tested concentration and stored at -70 degrees C prior to their use. All drugs and investigational agents were tested over a range starting from a high concentration at or near the clinical Cmax and decreasing in half-log increments. If the clinical Cmax for an agent had not been determined, the highest concentration tested was 10 microM.
2.3 Cell Culture. All cells were maintained in an incubator at 37 degrees C and 5% CO2 with 95% humidity. The PDC lines were cultured according to standard operating procedures established by the NCI PDMR. All PDCs were thawed and cultured in Matrigel-coated flasks prepared with a working solution of 1X Ham's F-12 nutrient mix, without supplementation (Invitrogen, cat. 11765054), 100 U/mL penicillin-streptomycin (Invitrogen, cat. 15140122), and 2.5% Matrigel (Corning Inc., cat. 354248) for the first three passages. The 857933-349-R-J2-PDC line was cultured in 6C/Colon 1B media, which includes advanced DMEM/F-12 (Thermo Fisher Scientific, cat. 12634028), 10 mM HEPES (Thermo Fisher Scientific, cat. 15630080), 1X GlutaMAX supplement (Thermo Fisher Scientific, cat. 35050061), 0.1 mg/mL primocin (InvivoGen, cat. ant-pm-2), 10% defined fetal bovine serum, heat inactivated (HyClone Laboratories Inc., cat. SH30070.03HI), 50% L-WRN conditioned media (ATCC, cat. CRL-3276), 1.25 mM N-Acetyl-L-cysteine (Sigma-Aldrich, cat. A9165), 10 mM nicotinamide (Sigma-Aldrich, cat. N0636), 1X B-27 supplement (Thermo Fisher Scientific, cat. 17504044), 1X N-2 supplement (Thermo Fisher Scientific, cat. 17502048), 10 microM Y-27632 dihydrochloride (Tocris Bioscience, cat. 1254), and 50 ng/mL human EGF recombinant protein (Thermo Fisher Scientific, cat. PHG0311). The 485176-168-R4-J1-PDC line was cultured in Panc media, which includes all 6C/Colon 1B media components plus 100 ng/mL human FGF-10 (Thermo Fisher Scientific, cat. 100-26), 500 nM SB-431542 (Selleckchem, cat. S1067), and gastrin (Tocris, cat. 3006).
[…]
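Also: spheroids exposed to drugs for 7 days before viability reading.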

**Q.** Which IC50 (second compound 0.0316 µM) does the source give for `Cc1cccc(N(C)C(=O)C2C(O)CCN2c2nc(C)cc(C(F)(F)F)c2C#N)c1` (configuration not stated) + CN(C)c1ccc(Nc2c3ccc(NC(=O)CCN4CCCC4)cc3nc3cc(NC(=O)CCN4CCCC4)ccc23)cc1 here?
**A.** > 10 µM

**Q.** What about the IC50 (second compound 0.1 µM) of the same molecule?
**A.** > 10 µM

**Q.** What about the IC50 (second compound 0.316 µM) of the same molecule?
**A.** > 10 µM

**Q.** What about the IC50 (second compound 1 µM) of the same molecule?
**A.** > 10 µM

**Q.** And the IC50 (second compound 3.16 µM)?
**A.** > 10 µM

**Q.** What about the IC50 (second compound 10 µM) of the same molecule?
**A.** > 10 µM

**Q.** What about the viability, T/C (second compound 0.0316 µM, first compound 0.0316 µM) of the same molecule?
**A.** 108%

**Q.** And the viability, T/C (second compound 0.0316 µM, first compound 0.1 µM)?
**A.** 99%

**Q.** And the viability, T/C (second compound 0.0316 µM, first compound 0.316 µM)?
**A.** 89.8%

**Q.** And the viability, T/C (second compound 0.0316 µM, first compound 1 µM)?
**A.** 94.1%

**Q.** What about the viability, T/C (second compound 0.0316 µM, first compound 3.16 µM) of the same molecule?
**A.** 101%

**Q.** What about the viability, T/C (second compound 0.0316 µM, first compound 10 µM) of the same molecule?
**A.** 101%

**Q.** What about the viability, T/C (second compound 0.1 µM, first compound 0.0316 µM) of the same molecule?
**A.** 118%

**Q.** What about the viability, T/C (second compound 0.1 µM, first compound 0.1 µM) of the same molecule?
**A.** 95.7%

**Q.** And the viability, T/C (second compound 0.1 µM, first compound 0.316 µM)?
**A.** 91.6%

**Q.** And the viability, T/C (second compound 0.1 µM, first compound 1 µM)?
**A.** 109%

**Q.** What about the viability, T/C (second compound 0.1 µM, first compound 3.16 µM) of the same molecule?
**A.** 95.5%

**Q.** And the viability, T/C (second compound 0.1 µM, first compound 10 µM)?
**A.** 109%

**Q.** And the viability, T/C (second compound 0.316 µM, first compound 0.0316 µM)?
**A.** 102%

**Q.** What about the viability, T/C (second compound 0.316 µM, first compound 0.1 µM) of the same molecule?
**A.** 102%

**Q.** What about the viability, T/C (second compound 0.316 µM, first compound 0.316 µM) of the same molecule?
**A.** 100%

**Q.** What about the viability, T/C (second compound 0.316 µM, first compound 1 µM) of the same molecule?
**A.** 115%

**Q.** What about the viability, T/C (second compound 0.316 µM, first compound 3.16 µM) of the same molecule?
**A.** 113%

**Q.** And the viability, T/C (second compound 0.316 µM, first compound 10 µM)?
**A.** 102%

**Q.** What about the viability, T/C (second compound 1 µM, first compound 0.0316 µM) of the same molecule?
**A.** 90.6%

**Q.** What about the viability, T/C (second compound 1 µM, first compound 0.1 µM) of the same molecule?
**A.** 103%

**Q.** What about the viability, T/C (second compound 1 µM, first compound 0.316 µM) of the same molecule?
**A.** 105%

**Q.** What about the viability, T/C (second compound 1 µM, first compound 1 µM) of the same molecule?
**A.** 105%

**Q.** And the viability, T/C (second compound 1 µM, first compound 3.16 µM)?
**A.** 97.6%

**Q.** What about the viability, T/C (second compound 1 µM, first compound 10 µM) of the same molecule?
**A.** 88%

**Q.** What about the viability, T/C (second compound 3.16 µM, first compound 0.0316 µM) of the same molecule?
**A.** 88%

**Q.** What about the viability, T/C (second compound 3.16 µM, first compound 0.1 µM) of the same molecule?
**A.** 98.1%

**Q.** What about the viability, T/C (second compound 3.16 µM, first compound 0.316 µM) of the same molecule?
**A.** 95.8%

**Q.** What about the viability, T/C (second compound 3.16 µM, first compound 1 µM) of the same molecule?
**A.** 91%

**Q.** What about the viability, T/C (second compound 3.16 µM, first compound 3.16 µM) of the same molecule?
**A.** 85.9%

**Q.** What about the viability, T/C (second compound 3.16 µM, first compound 10 µM) of the same molecule?
**A.** 87.7%

**Q.** And the viability, T/C (second compound 10 µM, first compound 0.0316 µM)?
**A.** 62.7%

**Q.** What about the viability, T/C (second compound 10 µM, first compound 0.1 µM) of the same molecule?
**A.** 63.6%

**Q.** And the viability, T/C (second compound 10 µM, first compound 0.316 µM)?
**A.** 72.9%

**Q.** And the viability, T/C (second compound 10 µM, first compound 1 µM)?
**A.** 63.7%

**Q.** And the viability, T/C (second compound 10 µM, first compound 3.16 µM)?
**A.** 58.8%

**Q.** And the viability, T/C (second compound 10 µM, first compound 10 µM)?
**A.** 47.8%
